Assay results: patent publication US11813277B2, “Methods and agents for modulating inflammation” (The Regents of the University of California, priority 2018, dated 2023)

Tests used:
Arginase = Arginase activity in BMDMs; type: cell-based, mouse; settings: 200 μM etomoxir, IL-4, 24 hr
Experimental: On Day 6 of differentiation, BMDMs were seeded at 1×10^6 cells/well in 6-well plates. 24 hr later, BMDMs were mock-treated or co-treated with 20 ng/mL IL-4±200 μM etomoxir in DMEM supplemented with 5% FBS, 2 mM L-glutamine, 100 units/mL, 100 μg/mL penicillin/streptomycin, 500 μM of sodium pyruvate and 5% v/v conditioned media containing macrophage colony stimulating factor (M-CSF) for 24 hr. Prior to sample collections, cells were washed with 600 μL of ice-cold PBS twice and scraped into 1.5 mL centrifuge tubes. Cell lysate was prepared according to Arginase Activity Assay Kit (Sigma MAK112) instructions and the 20 μL of lysate was used to measure arginase activity. Arginase activity was adjusted to total cell number.

HepG2 hepatoma cells = assay: Maximal respiration in intact HepG2 hepatoma cells (positive control); type: cell-based; settings: 3 μM etomoxir
Experimental: All respirometry studies were conducted in either a Seahorse XF96 or XFe96 Analyzer. All experiments were conducted at 37° C., and at pH 7.4 (intact cells) or 7.2 (permeabilized cells and isolated mitochondria). Calculation of respiratory parameters was made according to standard protocols (Divakaruni, A. S., Paradyse, A., Ferrick, D. A., Murphy, A. N., and Jastroch, M. (2014a) Analysis and interpretation of microplate-based oxygen consumption and pH data. Meth. Enzym 547, 509-54), and all rates were corrected for non-mitochondrial respiration/background signal by subtracting the oxygen consumption rate insensitive to rotenone plus antimycin A.
Detailed description of FIG. 5. (FIG. 5A) Maximal FCCP-stimulated respiration in response to 3 μM etomoxir in six cell types (experimental conditions in Materials and Methods). […] (n≥3 independent biological replicates). (FIG. 5B) (Left) Maximal respiration in HepG2 cells offered 8 mM glucose, 2 mM glutamine, and 2 mM pyruvate in the experimental medium with BPTES and UK5099 (both at 3 μM)±3 μM etomoxir. (n=4 independent biological replicates). (Right) Maximal respiration in 3T3-L1 adipocytes offered 1 mM glucose and 0.5 mM carnitine in the experimental medium with increasing concentrations of etomoxir. (n=3 independent biological replicates). […]

CPT-1 = target: T1, CPT-1 (Homo sapiens, UniProt P50416); assay: Palmitoyl CoA-driven respiration in permeabilized HepG2 cells; type: cell-based; parameters: endogenous in cells; host or cells: HepG2 (A5)
T1 sequence (P50416 1-773): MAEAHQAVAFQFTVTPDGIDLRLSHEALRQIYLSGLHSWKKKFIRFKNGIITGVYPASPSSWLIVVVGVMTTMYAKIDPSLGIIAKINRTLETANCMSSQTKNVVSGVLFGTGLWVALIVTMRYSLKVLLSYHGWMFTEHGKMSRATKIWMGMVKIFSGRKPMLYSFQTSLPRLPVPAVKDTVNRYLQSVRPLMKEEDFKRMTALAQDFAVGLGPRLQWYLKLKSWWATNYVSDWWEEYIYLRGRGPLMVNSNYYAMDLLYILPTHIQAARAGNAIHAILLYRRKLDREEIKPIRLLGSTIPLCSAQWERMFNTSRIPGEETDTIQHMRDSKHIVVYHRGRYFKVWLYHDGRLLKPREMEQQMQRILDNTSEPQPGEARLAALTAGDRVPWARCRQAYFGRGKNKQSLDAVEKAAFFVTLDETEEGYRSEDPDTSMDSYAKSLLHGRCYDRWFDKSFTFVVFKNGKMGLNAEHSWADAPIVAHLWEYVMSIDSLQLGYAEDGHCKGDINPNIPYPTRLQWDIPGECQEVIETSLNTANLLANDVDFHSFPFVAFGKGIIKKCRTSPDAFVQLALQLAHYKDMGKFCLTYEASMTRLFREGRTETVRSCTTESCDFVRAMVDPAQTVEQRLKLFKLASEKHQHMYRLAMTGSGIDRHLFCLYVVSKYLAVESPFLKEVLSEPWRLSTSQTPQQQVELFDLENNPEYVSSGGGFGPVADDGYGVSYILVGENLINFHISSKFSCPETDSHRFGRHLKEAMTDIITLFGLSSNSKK

CCOC(=O)[C@@]1(CCCCCCOc2ccc(Cl)cc2)CO1 [etomoxir] was tested, and the Arginase activity (Arginase) was “unaffected”, the respiration (HepG2 hepatoma cells) was “sufficient to inhibit respiration” and the “EC50, FCCP-stimulated palmitoyl CoA-driven respiration” value (CPT-1) was “nanomolar”. The “concentration of saturable effect” value (CPT-1) was “less than 3 μM”.
